Laboratory results reported in US9927437B2, “Treating neurodegenerative disease” (THE BRIGHAM AND WOMEN'S HOSPITAL, INC., priority 2013, dated 2018).
Entries after “also recorded” stand apart in the source; their conditions may differ.

Experiments:
[1] = test system: microglia and CNS-infiltrating monocytes; experiment: mRNA expression in microglia and CNS-infiltrating monocytes from EAE NOD mice; format: in vivo, mouse
Text: FIGS. 5a-m. B4GALT6 in astrocytes regulates the activation of microglia and CNS-infiltrating monocytes. (a) Heatmap depicting mRNA expression, as determined by nCounter Nanostring analysis, in microglia from naïve or EAE NOD mice treated with PDMP or vehicle. Representative data of three independent experiments. Statistical analysis by Student's t-test. (b) qPCR analysis of ccl5, il1b, opn, nos2, cd40, and H2-Aa gene expression relative to Gapdh. (c, d) Mean normalized expression of genes associated with M1- or M2-phenotype in microglia (Table 3) (c) and Ly6C^high monocytes (d). Statistical analysis by Student's t-test. (e-h) primary microglia were pre-treated with PDMP, LacCer, or vehicle, followed by activation with LPS/IFNγ for 6 h or left un-treated (control) as in (FIG. 3a). mRNA expression was determined by nCounter Nanostring analysis (e, g), and microglial viability was determined (f, h). Representative data of five independent experiments. (i) Mixed glia cultures were treated with mild trypsin/EDTA (T/E) to remove the astrocyte monolayer leaving only the microglia attached to the plate, or left un-treated. Cultures were pre-treated with PDMP, LacCer or vehicle, and activated with LPS/IFNγ for 6 h. Following activation, both cultures were washed, and incubated with mild T/E to remove the astrocytes; thus, leaving only the microglia (MG) attached to the plates. RNA was harvested from microglia treated in the absence [MG (pure)] or presence [MG (mixed)] of astrocytes and gene expression was analyzed by qPCR for the expression ccl2, ccl5 and nos2 relative to gapdh. Data present the relative effect of PDMP (left panel) or LacCer (right panel) pre-treatment on LPS/IFNγ-triggered gene induction, from five independent experiments. Statistical analysis by Student's t-test. (j) Mixed glia were pre-treated with indicated blocking antibodies or appropriate isotype controls (25 μg/ml) and LacCer […] or vehicle control, and then activated with LPS/IFNγ for 6 h. Microglia were isolated as in (i), and microglial-nos2 expression was determined by qRT relative to gapdh and presented as in (i). Representative data of three independent experiments. (k) ChIP analysis of the interaction of NF-κB, and IRF-1 with the csf2 promoter in primary cultured astrocytes. (l, m) Expression csf2 in astrocytes (l) and nos2 in microglial cells (m) isolated form the CNS of chronic EAE NOD mice, 10 days after the i.c.v. injection of astrocytes-specific shRNA lentivirus as in (FIG. 3j). Data from two independent experiments. For all data, means and s.e.m. are shown. *P<0.05, **P<0.01, ***P<0.001 and n.s. not significant.
Mononuclear cells were isolated from the CNS as previously described^50 with minor modifications. […]

Ly6C^high monocytes = experiment: Monocytes migration assay (transwell, CCL-2); format: cell-based, mouse; conditions: 1 h pre-treatment, CCL-2 50 ng/ml, 3 h
Text: FIGS. 4a-m. B4GALT6 regulates ccl2 transcriptional activity in astrocytes. (a) Murine ccl2 promoter. (b) Luciferase activity in 293T cells transfected with the ccl2 luciferase reporter plus one of the following constructs encoding IRF-1, p65 or an empty control vector (Empty). Results are relative to secreted alkaline phosphatase activity, presented as fold induction from empty vector. Data from three independent experiments, statistical analysis by Student's t-test. (c) ChIP analysis of the interaction of NF-κB, and IRF-1 with the ccl2 promoter in primary cultured astrocytes, pre-treated with PDMP and LacCer and activated with LPS/IFNγ (as in FIG. 3), 2 hours following LPS/IFNγ induction. (d-h) Recruitment of inflammatory monocytes (defined either as of CD11b^+ Ly6C^high or CD11b^+CD45^high cells) to the CNS of EAE NOD mice treated with PDMP or vehicle, as in (FIG. 1k), analyzed by flow cytometry and presented as cell frequency (e, g) and total cell numbers (f, h). Representative data of three independent experiments. […] (i) The frequency and number of CD11b^+ Ly6C^high monocytes as determined in the CNS 10 days after the i.c.v. injection of astrocytes-specific shRNA lentivirus as in (FIG. 3j). […] (j) monocytes were pre-treated for 1 h with PDMP, LacCer, both (LacCer+PDMP), or vehicle, and monocytes chemotaxis was measured using a transwell chamber system. […]

primary mouse microglia = experiment: Viability assay, microglia; format: cell-based; conditions: absence of astrocytes, LPS/IFNγ
Text: FIGS. 5a-m. B4GALT6 in astrocytes regulates the activation of microglia and CNS-infiltrating monocytes. (a) Heatmap depicting mRNA expression, as determined by nCounter Nanostring analysis, in microglia from naïve or EAE NOD mice treated with PDMP or vehicle. Representative data of three independent experiments. Statistical analysis by Student's t-test. (b) qPCR analysis of ccl5, il1b, opn, nos2, cd40, and H2-Aa gene expression relative to Gapdh. (c, d) Mean normalized expression of genes associated with M1- or M2-phenotype in microglia (Table 3) (c) and Ly6C^high monocytes (d). Statistical analysis by Student's t-test. (e-h) primary microglia were pre-treated with PDMP, LacCer, or vehicle, followed by activation with LPS/IFNγ for 6 h or left un-treated (control) as in (FIG. 3a). mRNA expression was determined by nCounter Nanostring analysis (e, g), and microglial viability was determined (f, h). Representative data of five independent experiments. […] RNA was harvested from microglia treated in the absence [MG (pure)] or presence [MG (mixed)] of astrocytes and gene expression was analyzed by qPCR for the expression ccl2, ccl5 and nos2 relative to gapdh. […] Microglia were isolated as in (i), and microglial-nos2 expression was determined by qRT relative to gapdh and presented as in (i). […]

Row | Molecule | M1-associated genes in microglia and CNS-infiltrating monocytes ([1]; NOD EAE) | M2-associated genes in microglia and CNS-infiltrating monocytes ([1]; NOD EAE) | expression of genes associated with microglia activation ([1]; microglia from NOD EAE progressive phase) | monocyte migration in a CCL-2 gradient (Ly6C^high monocytes) | viability of cultured primary mouse microglia (primary mouse microglia) | nos2 expression in microglia ([1]; chronic NOD EAE, 10 days after i.c.v. shRNA lentivirus)
1 | CCCCCCCCCC(=O)N[C@H](CN1CCOCC1)[C@H](O)c1ccccc1 [PDMP, D-threo-1-phenyl-2-decanoylamino-3-morpholino-1-propanol] | significant down regulation | up-regulation | reduced the expression | did not affect; also recorded: no significance effect | neither the viability nor the response of cultured primary mouse microglia to LPS/IFNγ was affected | –
2 | shB4galt6: lentivirus-delivered shRNA against b4galt6 (TRCN0000334278; SEQ ID NO:3) (guide CGATGGACTGAACAATTTATTCTCGAGAATAAATTGTTCAGTCCACG) | – | – | – | – | – | decreased nos2 expression
3 | lactosylceramide [LacCer] | – | – | – | did not affect; also recorded: no significance effect | neither the viability nor the response of cultured primary mouse microglia to LPS/IFNγ was affected | –
